US11384073B2, “Maleate salt of benzothiophene compound, crystalline form thereof, and use thereof” (SHANGHAI INSTITUTE OF MATERIA MEDICA, CHINESE ACADEMY OF …, priority 2018, dated 2022)
≈ marks a conversion by molar mass, not a printed value. Like-named read-outs stand apart in the source and are kept apart here.

Assays:
[1] = Comparison of stability (Factors influencing test)
Wistar rats = assay: Acute toxicity experiments in rats; format: in vivo
Procedure: Wistar rats were randomly divided into 3 groups with 10 rats in each group. The animals were fasted for 12 hours before the administration, and the muscle relaxation state of the animals was observed 1 hour after the administration. The animal's two forepaws were gripped on a 40 cm-high hemp rope for testing for three times. The case in which the animal could put the hind paws on the rope within 15 s for two or more times was regarded as no muscle relaxation. Otherwise, it was regarded as muscle relaxation. After each animal's muscle relaxation test, a catalepsy experiment was performed, and the “grip rod” experiment method was used to determine the rat's rigidity duration. The rat's two forepaws were gently put on a small rod to test the duration time that the rats maintained their two forepaws on the rod in a 45-degree posture. […] If the rat's forepaw had not been put down, the observation was terminated at 180 s.

[2] = Comparison of hygroscopicity; format: physicochemical; settings: relative humidity 92.5%, 96 hours; for Moisture gain: room temperature
Procedure: The basic compound of compound Z (Example 1) and the different salts of compound Z (Examples 2, 4-6, 9) were studied for their hygroscopicity. A certain amount of the test sample was placed in a precisely weighed glass weighing bottle with a stopper, and weighed accurately. The weighing bottle was openly placed in a desiccator (a saturated potassium nitrate solution was placed in the lower part, with a relative humidity of 92.5%), and kept at room temperature for 96 hours, and then the weighing bottle was covered with the stopper and weighed accurately. The moisture gain was calculated.

[3] = Comparison of solubility of the compounds; format: physicochemical
Procedure: An appropriate amount of a sample was weighted in a glass tube, the selected solvent was added thereto in a gradient and the resultant was observed until it became clear.

[4] = Comparison of appearance and compositions of the compounds; format: physicochemical
Excerpt: The basic compound of compound Z (Example 1) was compared with the different salts of compound Z (Examples 2, 6-12) for their appearance, compositions, crystalline forms, etc., and the results are shown in the following table: […]

[5] = High temperature (60° C.), Day 2
[6] = Illumination (4500 lx ± 500 lx), Day 2

| Compound | Purity ([1]; Day 0) [%] | Purity [1, 5] [%] | Purity [1, 6] [%] | Hygroscopicity (in words) [2] | Moisture gain [2] [%] | Composition [4] | Crystal water [4] | Static electricity [4] | also measured |
| --- | --- | --- | --- | --- | --- | --- | --- | --- | --- |
| CS(=O)(=O)O.O=c1ccc2ccc(CCN3CCN(c4cccc5sccc45)CC3)cc2[nH]1 [Methanesulfonate of compound Z, Methanesulfonate of 7-(2-(4-(benzo[b]thiophen-4-yl)piperazin-1-yl)ethyl)quinoline-2(1H)-one] | 98.60 | 98.47 | 98.54 | relatively high hygroscopicity | 1.74 | – | – | – | Animal status after single administration (rigidity/muscle relaxation) (Wistar rats; gavage 200 mg/kg, 10 per group, Day 7): 5 normal |
| O=C(O)/C=C/C(=O)O.O=c1ccc2ccc(CCN3CCN(c4cccc5sccc45)CC3)cc2[nH]1 [Fumarate of compound Z, Fumarate of 7-(2-(4-(benzo[b]thiophen-4-yl)piperazin-1-yl)ethyl)quinoline-2(1H)-one] | – | – | – | – | – | constant | No | No | Solubility ([3]; Deionized water): 117.6 µg/mL; Solubility ([3]; buffer with pH = 2): 2.0 µg/mL; Solubility ([3]; buffer with pH = 4.5): 1.8 µg/mL |
| Citrate of 7-(2-(4-(benzo[b]thiophen-4-yl)piperazin-1-yl)ethyl)quinoline-2(1H)-one [Citrate of compound Z] | – | – | – | lower hygroscopicity | 0.53 | constant | No | No | – |
| O=c1ccc2ccc(CCN3CCN(c4cccc5sccc45)CC3)cc2[nH]1 [Compound Z, 7-(2-(4-(benzo[b]thiophen-4-yl)piperazin-1-yl)ethyl)quinoline-2(1H)-one] | 98.07 | 98.03 | 98.01 | – | −0.16 | constant | No | No | Stability (in words) ([1]; under high temperature and illumination conditions): high stability; Acute toxicity, recovery and animal deaths (comparison in words) (Wistar rats; dose of 200 mg/kg): the highest toxicity, the slowest recovery, and the most animal deaths; Solubility in deionized water (comparison in words) ([3]; Deionized water): significantly lower than those of the salts of compound Z; Solubility ([3]; buffer pH 2, aqueous buffer, thermodynamic from solid, buffer with pH = 2, read-out: Solubility): 6.8 µg/mL (≈ 17.5 µM); Solubility ([3]; buffer pH 4.5, aqueous buffer, thermodynamic from solid, buffer with pH = 4.5, read-out: Solubility): 0.7 µg/mL (≈ 1.8 µM) |
| O=P(O)(O)O.O=c1ccc2ccc(CCN3CCN(c4cccc5sccc45)CC3)cc2[nH]1 [Phosphate of compound Z, Phosphate of 7-(2-(4-(benzo[b]thiophen-4-yl)piperazin-1-yl)ethyl)quinoline-2(1H)-one] | – | – | – | – | – | constant | No | No | Solubility ([3]; Deionized water): 181.2 µg/mL; Solubility ([3]; buffer with pH = 2): 2.8 µg/mL; Solubility ([3]; buffer with pH = 4.5): 0.1 µg/mL |
| Cl.O.O=c1ccc2ccc(CCN3CCN(c4cccc5sccc45)CC3)cc2[nH]1 [Monohydrochloride of compound Z, Monohydrochloride Monohydrate of 7-(2-(4-(benzo[b]thiophen-4-yl)piperazin-1-yl)ethyl)quinoline-2(1H)-one] | – | – | – | relatively high hygroscopicity | 7.01 | – | – | – | – |
| O=C(O)CCC(=O)O.O=c1ccc2ccc(CCN3CCN(c4cccc5sccc45)CC3)cc2[nH]1 [Succinate of compound Z, Succinate of 7-(2-(4-(benzo[b]thiophen-4-yl)piperazin-1-yl)ethyl)quinoline-2(1H)-one] | 98.95 | 99.93 | 99.92 | – | 2.02 | – | – | – | – |
